Experiments:
[1] = system: human cancer cell lines (HT-29, HCT116, Huh7, A549, MCF7, MDA-MB-231); assay: SRB anti-proliferative assay on human cancer cell lines; assay type: cell-based
Method: Antrocin was dissolved in DMSO at a concentration of 10 mM and was stored in a dark-colored bottle at −20° C. as a stock solution. The stock was diluted to the required concentration with serum-free medium immediately before use. Before treatment with antrocin, the medium was removed when cells were about 70% confluent, the cells were starved overnight in serum-free medium and then exposed to antrocin at different concentrations (0-10 μM) and for different periods of time (0-48 h).
(§1) Briefly, three breast cancer cells (MDA-MB-231, MCF-7 & MCF-10A) were seeded into 96-well plates in growth medium at 3000 cells/well for 24 h. Then, the cells were treated with antrocin at various concentrations (0, 0.5, 1, 3, 5 and 10 μM) for various periods of time. After the exposure period, the cells were fixed with TCA for 1 hour and stained with 100 μL of 0.4% (w/v) SRB for 10 minutes at room temperature. The bound dye was solubilized in 20 mM Tris base (100 μL/well) for 5 minutes on a shaker. Optical densities were read on a microplate reader (Molecular Devices, Sunnyvale, Calif.) at 562 nm.
(§2) The anti-proliferative effects of antrocin were assessed on human cancer cell lines, using the SRB assay, with normal foreskins fibroblast HS68 cells and non-tumorgenic breast epithelial MCF-10A cells as controls.

[2] = system: MDA-MB-231 human breast cancer cells; assay: SRB cytotoxicity assay, MDA-MB-231; assay type: cell-based
Method: (§3) MCF-7 and MDA-MB-231 breast tumor cell lines came from a pleural effusion of patients with invasive breast carcinoma. The MCF-10A cell line is a non-tumorigenic epithelial cell line. All three human cell lines were provided by the American Type Culture Collection (ATCC). In the present invention, MDA-MB-231 cells were grown in Dulbecco's Modified Eagle's Medium (DMEM) media with 10% FBS, 2 mM glutamine, 100 μg/ml streptomycin in a 37° C. humidified atmosphere with CO2. MCF-7 were cultured in DMEM media supplemented with 2 mM L-glutamine, 100 μg/ml streptomycin, 10% fetal bovine serum, 0.04 UI/ml insulin in a humidified atmosphere at 37° C. containing 5% CO2. MCF10A cells were maintained in DMEM containing 5% horse serum, 2 mM L-glutamine, 20 μg/ml gentamycin, 20 ng/ml epidermal growth factor, 100 ng/ml cholera toxin, 0.25 UI/ml insulin and 0.5 μg/ml hydrocortisone held at 37° C. with 5% CO2.
(§4) Antrocin was dissolved in DMSO at a concentration of 10 mM and was stored in a dark-colored bottle at −20° C. as a stock solution. The stock was diluted to the required concentration with serum-free medium immediately before use. […]
(§5) Briefly, three breast cancer cells (MDA-MB-231, MCF-7 & MCF-10A) were seeded into 96-well plates in growth medium at 3000 cells/well for 24 h. […] Optical densities were read on a microplate reader (Molecular Devices, Sunnyvale, Calif.) at 562 nm.

[3] = system: MCF-7 human breast carcinoma cells; assay: SRB cytotoxicity assay, MCF-7; assay type: cell-based
Method: as §3, §4, §5

[4] = system: normal foreskins fibroblast HS68 cells; assay: SRB assay, normal HS68 cells; assay type: cell-based, human; details: SRB assay (FIG. 2)
Method: as §1, §2

[5] = system: non-tumorgenic breast epithelial MCF-10A cells; assay: SRB assay, non-tumorgenic MCF-10A cells; assay type: cell-based, human; details: SRB assay (FIG. 2)
Method: as §3, §4, §5

MDA-MB-231 cells [6] = assay: Cell morphology studies by phase microscopy; assay type: cell-based, human; details: 48 hr incubation, various concentration, phase-contrast microscope (FIG. 4)
Method: After treatment with different dose of antrocin for 48 hr, the MDA-MB-231 cells, cultured on glass coverslips, were washed three times with PBS, fixed with 3% paraformaldehyde for 10 min at room temperature, and then washed in PBS again, and the morphological changes were observed. Cell morphology was then observed by phase microscopy.

MDA-MB-231 cells [7] = assay: Cell cycle analysis by PI flow cytometry; assay type: cell-based, human; details: 48 hr, MDA-MB-231 (FIG. 5)
Method: A total of 2×10^5 MDA-MB-231 cells/dish were seeded onto each 60 mm dish and incubated for 24 h. Various concentration of antrocin were added to the culture media, and the cells were incubated for an additional 48 hr. Cells were harvested and fixed in cold 75% ethanol at 4° C. for 16 h and incubated with 20 μg/ml RNase A at 37° C. for 30 min and then with 40 μg/ml propidium iodide (PI) at 4° C. for 30 min. Samples were immediately analyzed with a FACSCalibur flow cytometer (Becton, Dickinson and Co., San Jose, Calif). Approximately 10,000 counts were made for each sample. The percentage distributions of apoptotic cells were calculated by CellQuest™ software (Becton, Dickinson and Co., San Jose, Calif.).

Compound: C=C1CCC2C(C)(C)CCCC23C(=O)OCC13 (centres unmarked) [antrocin]
- inhibition activity to cancer cell lines ([1]; HT-29, HCT116, Huh7, A549, MCF7, MDA-MB-231): high inhibition activity
- growth of cancer cells ([1]; SRB assay, all cancer cells tested (FIG. 1)): inhibited in a concentration-dependent manner
- cell growth inhibition compared with doxorubicin or cisplatin ([2]; MDA-MB-231, 48 hr treatment, same dosage (FIG. 3)): more potent than doxorubicin or cisplatin
- MDA-MB-231 cell growth ([2]; antrocin concentration of 0.5 μM): significantly inhibited
- cell growth inhibition, MDA-MB-231 compared with MCF-7 [3]: more effective in MDA-MB-231 cells in comparison with MCF-7
- antiproliferative effect on HS68 cells [4]: no antiproliferative effect
- antiproliferative effect / growth inhibition on MCF-10A cells [5]: no antiproliferative effect
- antiproliferative effect / growth inhibition on MCF-10A cells ([5]; listed as Antrocin): no significant inhibition
- morphological alterations (MDA-MB-231 cells [6]): cell shrinkage, membrane blebbing, apoptotic body formation
- progression to apoptosis (apoptotic cells) (MDA-MB-231 cells [7]; 10 μM antrocin): 58.3%
- cell cycle distribution (MDA-MB-231 cells [7]; different dose): accumulated progressively in subG1 phase

— patent US8580847B2, “Antrocin containing pharmaceutical compositions for inhibiting cancer cells” (Chaoyang University of Technology, priority 2010, dated 2013)
